# From PubChem BioAssay AID2060882 (Molecular Pharmacology Branch, DTP, NCI, 2025)
# pIC50: −log10 of the molar value.
# Tested on: 898857-211-R-J1-PDC complex spheroids, growth % test/control
# Test: Anticancer human tumor 898857-211-R-J1-PDC patient-derived melanoma cell line growth inhibition [RAS]
# Conditions: for pIC50: curve of first compound; for viability, T/C: stronger effect = lower value
# Method in brief: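 Multi-cell-type spheroids: tumor cells plus HUVEC endothelial cells and mesenchymal stem cells. RAS-pathway inhibitors were combined with targeted agents, each dosed in half-log steps down from clinical Cmax, or from 10 microM when Cmax was unknown.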
# 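Also: spheroids exposed to compound for seven days before readout.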
# 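For viability, T/C in this document: 100% = DMSO vehicle control wells.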
structure (smiles),measurement,setting,value
O=C(c1ccc(F)c(F)c1Nc1ccc(I)cc1F)N1CC(O)([C@@H]2CCCCN2)C1 + C=CC(=O)N1CCN(c2nc(OCC3CCCN3C)nc3c(F)c(-c4nc(N)cc(C)c4C(F)(F)F)c(Cl)cc23)C(C)C1,pIC50,second compound 0.00316 µM,8.29
same,pIC50,second compound 0.01 µM,8.46
same,pIC50,second compound 0.0316 µM,8.34
same,pIC50,second compound 0.1 µM,8.24
same,pIC50,second compound 0.316 µM,8.16
same,pIC50,second compound 1 µM,8.06
same,"viability, T/C","second compound 0.00316 µM, first compound 0.00316 µM",60.9%
same,"viability, T/C","second compound 0.00316 µM, first compound 0.01 µM",33.6%
same,"viability, T/C","second compound 0.00316 µM, first compound 0.0316 µM",28.4%
same,"viability, T/C","second compound 0.00316 µM, first compound 0.1 µM",21.8%
same,"viability, T/C","second compound 0.00316 µM, first compound 0.316 µM",18.9%
same,"viability, T/C","second compound 0.00316 µM, first compound 1 µM",16.4%
same,"viability, T/C","second compound 0.01 µM, first compound 0.00316 µM",50.9%
same,"viability, T/C","second compound 0.01 µM, first compound 0.01 µM",38.3%
same,"viability, T/C","second compound 0.01 µM, first compound 0.0316 µM",26.4%
same,"viability, T/C","second compound 0.01 µM, first compound 0.1 µM",19.6%
same,"viability, T/C","second compound 0.01 µM, first compound 0.316 µM",15.8%
same,"viability, T/C","second compound 0.01 µM, first compound 1 µM",16%
same,"viability, T/C","second compound 0.0316 µM, first compound 0.00316 µM",56.3%
same,"viability, T/C","second compound 0.0316 µM, first compound 0.01 µM",38%
same,"viability, T/C","second compound 0.0316 µM, first compound 0.0316 µM",23.6%
same,"viability, T/C","second compound 0.0316 µM, first compound 0.1 µM",23.6%
same,"viability, T/C","second compound 0.0316 µM, first compound 0.316 µM",19.1%
same,"viability, T/C","second compound 0.0316 µM, first compound 1 µM",15.3%
same,"viability, T/C","second compound 0.1 µM, first compound 0.00316 µM",60.6%
same,"viability, T/C","second compound 0.1 µM, first compound 0.01 µM",39.7%
same,"viability, T/C","second compound 0.1 µM, first compound 0.0316 µM",28%
same,"viability, T/C","second compound 0.1 µM, first compound 0.1 µM",21.5%
same,"viability, T/C","second compound 0.1 µM, first compound 0.316 µM",17.6%
same,"viability, T/C","second compound 0.1 µM, first compound 1 µM",14%
same,"viability, T/C","second compound 0.316 µM, first compound 0.00316 µM",58.1%
same,"viability, T/C","second compound 0.316 µM, first compound 0.01 µM",46.9%
same,"viability, T/C","second compound 0.316 µM, first compound 0.0316 µM",33.4%
same,"viability, T/C","second compound 0.316 µM, first compound 0.1 µM",25.4%
same,"viability, T/C","second compound 0.316 µM, first compound 0.316 µM",19.1%
same,"viability, T/C","second compound 0.316 µM, first compound 1 µM",14.4%
same,"viability, T/C","second compound 1 µM, first compound 0.00316 µM",73.2%
same,"viability, T/C","second compound 1 µM, first compound 0.01 µM",40.8%
same,"viability, T/C","second compound 1 µM, first compound 0.0316 µM",38.6%
same,"viability, T/C","second compound 1 µM, first compound 0.1 µM",23.5%
same,"viability, T/C","second compound 1 µM, first compound 0.316 µM",18.1%
same,"viability, T/C","second compound 1 µM, first compound 1 µM",14.5%
CCc1c2c(nc3ccc(O)cc13)-c1cc3c(c(=O)n1C2)COC(=O)[C@]3(O)CC + C#Cc1c(F)ccc2cc(O)cc(-c3ncc4c(N5CC6CCC(C5)N6)nc(OCC56CCCN5CC(F)C6)nc4c3F)c12,pIC50,second compound 0.0316 µM,8.33
same,pIC50,second compound 0.1 µM,8.34
same,pIC50,second compound 0.316 µM,8.29
same,pIC50,second compound 1 µM,8.31
same,pIC50,second compound 3.16 µM,8.27
same,pIC50,second compound 10 µM,8.98
same,"viability, T/C","second compound 0.0316 µM, first compound 0.000949 µM",109%
same,"viability, T/C","second compound 0.0316 µM, first compound 0.003 µM",63.3%
same,"viability, T/C","second compound 0.0316 µM, first compound 0.00949 µM",30%
same,"viability, T/C","second compound 0.0316 µM, first compound 0.03 µM",11.4%
same,"viability, T/C","second compound 0.0316 µM, first compound 0.0949 µM",9.62%
same,"viability, T/C","second compound 0.0316 µM, first compound 0.3 µM",9.76%
same,"viability, T/C","second compound 0.1 µM, first compound 0.000949 µM",94.1%
same,"viability, T/C","second compound 0.1 µM, first compound 0.003 µM",61.4%
same,"viability, T/C","second compound 0.1 µM, first compound 0.00949 µM",30.9%
same,"viability, T/C","second compound 0.1 µM, first compound 0.03 µM",10.3%
same,"viability, T/C","second compound 0.1 µM, first compound 0.0949 µM",8.95%
same,"viability, T/C","second compound 0.1 µM, first compound 0.3 µM",8.77%
same,"viability, T/C","second compound 0.316 µM, first compound 0.000949 µM",93%
same,"viability, T/C","second compound 0.316 µM, first compound 0.003 µM",67.7%
same,"viability, T/C","second compound 0.316 µM, first compound 0.00949 µM",30.2%
same,"viability, T/C","second compound 0.316 µM, first compound 0.03 µM",8.72%
same,"viability, T/C","second compound 0.316 µM, first compound 0.0949 µM",7.89%
same,"viability, T/C","second compound 0.316 µM, first compound 0.3 µM",9.18%
same,"viability, T/C","second compound 1 µM, first compound 0.000949 µM",86.7%
same,"viability, T/C","second compound 1 µM, first compound 0.003 µM",62.4%
same,"viability, T/C","second compound 1 µM, first compound 0.00949 µM",33.9%
same,"viability, T/C","second compound 1 µM, first compound 0.03 µM",11.3%
same,"viability, T/C","second compound 1 µM, first compound 0.0949 µM",8.52%
same,"viability, T/C","second compound 1 µM, first compound 0.3 µM",8.89%
same,"viability, T/C","second compound 3.16 µM, first compound 0.000949 µM",87.2%
same,"viability, T/C","second compound 3.16 µM, first compound 0.003 µM",71.3%
same,"viability, T/C","second compound 3.16 µM, first compound 0.00949 µM",29%
same,"viability, T/C","second compound 3.16 µM, first compound 0.03 µM",10.9%
same,"viability, T/C","second compound 3.16 µM, first compound 0.0949 µM",9.14%
same,"viability, T/C","second compound 3.16 µM, first compound 0.3 µM",8.78%
same,"viability, T/C","second compound 10 µM, first compound 0.000949 µM",51.6%
same,"viability, T/C","second compound 10 µM, first compound 0.003 µM",29.9%
same,"viability, T/C","second compound 10 µM, first compound 0.00949 µM",15%
same,"viability, T/C","second compound 10 µM, first compound 0.03 µM",10.1%
same,"viability, T/C","second compound 10 µM, first compound 0.0949 µM",9.3%
same,"viability, T/C","second compound 10 µM, first compound 0.3 µM",7.33%
Cc1nc(N2CCC3(CC2)COC(C)C3N)c(CO)nc1Sc1ccnc(N)c1Cl (stereo unspecified) + CCn1c(-c2cccnc2C(C)OC)c2c3cc(ccc31)N1CCOC(CC(NC(=O)C(C(C)C)N(C)C(=O)C3(F)CCN(C(=O)C#CC(C)(C)N(C)C)CC3)C(=O)N3CCCC(N3)C(=O)OCC(C)(C)C2)C1,pIC50,second compound 0.000949 µM,< 5.00
same,pIC50,second compound 0.003 µM,< 5.00
same,pIC50,second compound 0.00949 µM,< 5.00
same,pIC50,second compound 0.03 µM,< 5.00
same,pIC50,second compound 0.0949 µM,< 5.00
same,pIC50,second compound 0.3 µM,< 5.00
same,"viability, T/C","second compound 0.000949 µM, first compound 0.0316 µM",94.5%
same,"viability, T/C","second compound 0.000949 µM, first compound 0.1 µM",94.9%
same,"viability, T/C","second compound 0.000949 µM, first compound 0.316 µM",103%
same,"viability, T/C","second compound 0.000949 µM, first compound 1 µM",98.8%
same,"viability, T/C","second compound 0.000949 µM, first compound 3.16 µM",93.1%
same,"viability, T/C","second compound 0.000949 µM, first compound 10 µM",90.6%
same,"viability, T/C","second compound 0.003 µM, first compound 0.0316 µM",98.6%
same,"viability, T/C","second compound 0.003 µM, first compound 0.1 µM",98.5%
same,"viability, T/C","second compound 0.003 µM, first compound 0.316 µM",97.6%
same,"viability, T/C","second compound 0.003 µM, first compound 1 µM",95.7%
same,"viability, T/C","second compound 0.003 µM, first compound 3.16 µM",113%
same,"viability, T/C","second compound 0.003 µM, first compound 10 µM",93.4%
same,"viability, T/C","second compound 0.00949 µM, first compound 0.0316 µM",99.7%
same,"viability, T/C","second compound 0.00949 µM, first compound 0.1 µM",104%
same,"viability, T/C","second compound 0.00949 µM, first compound 0.316 µM",107%
same,"viability, T/C","second compound 0.00949 µM, first compound 1 µM",96%
same,"viability, T/C","second compound 0.00949 µM, first compound 3.16 µM",92.3%
same,"viability, T/C","second compound 0.00949 µM, first compound 10 µM",85.1%
same,"viability, T/C","second compound 0.03 µM, first compound 0.0316 µM",93.2%
same,"viability, T/C","second compound 0.03 µM, first compound 0.1 µM",90.2%
same,"viability, T/C","second compound 0.03 µM, first compound 0.316 µM",96.8%
same,"viability, T/C","second compound 0.03 µM, first compound 1 µM",109%
same,"viability, T/C","second compound 0.03 µM, first compound 3.16 µM",89.5%
same,"viability, T/C","second compound 0.03 µM, first compound 10 µM",92%
same,"viability, T/C","second compound 0.0949 µM, first compound 0.0316 µM",90.6%
same,"viability, T/C","second compound 0.0949 µM, first compound 0.1 µM",100%
same,"viability, T/C","second compound 0.0949 µM, first compound 0.316 µM",87.7%
same,"viability, T/C","second compound 0.0949 µM, first compound 1 µM",96.3%
same,"viability, T/C","second compound 0.0949 µM, first compound 3.16 µM",92%
same,"viability, T/C","second compound 0.0949 µM, first compound 10 µM",88.6%
same,"viability, T/C","second compound 0.3 µM, first compound 0.0316 µM",85.2%
same,"viability, T/C","second compound 0.3 µM, first compound 0.1 µM",82.7%
same,"viability, T/C","second compound 0.3 µM, first compound 0.316 µM",77.4%
same,"viability, T/C","second compound 0.3 µM, first compound 1 µM",76.9%
same,"viability, T/C","second compound 0.3 µM, first compound 3.16 µM",74.2%
same,"viability, T/C","second compound 0.3 µM, first compound 10 µM",69.5%
